# Article PMC8217170, “Phase Ib dose-escalation study of the hypoxia-modifier Myo-inositol trispyrophosphate in patients with hepatopancreatobiliary tumors” (Nature Communications, 2021)
# Several values for one entry are separate records, joined by “and”; a condition that tells them apart may be missing. Equal entries are not always repeated.
# Assay: Plasma levels and pharmacokinetics of intravenous ITPP
# Settings: for VSSO / VZO / AUCTmax / AUC∞ / AUC∞ / Dose / AUMCTmax / AUMC∞ / CLO / Clast / Cmax / Cmax / Dose / Cmin / Elimination rate λz / Half-life / T0.5 / MRTTmax / MRT∞ / Tlast / Tmax: individual patients
compound,measurement,setting,value
"O=P1(O)OC2C3OP(=O)(O)OP(=O)(O)OC3C3OP(=O)(O)OP(=O)(O)OC3C2OP(=O)(O)O1 (stereo not drawn) [ITPP, Myo-inositol trispyrophosphate]",VSSO,cohort 2 (3732 mg/m2),10.6 L and 11.9 L and 8.8 L
same,VZO,cohort 2 (3732 mg/m2),8.9 L and 10.8 L and 8.1 L
same,AUCTmax,cohort 3 (5600 mg/m2),1142.0 µg·h/mL and 856.4 µg·h/mL and 1779.2 µg·h/mL
same,AUC∞,cohort 3 (5600 mg/m2),1264.3 µg·h/mL and 945.9 µg·h/mL and 1987.5 µg·h/mL
same,AUC∞ / Dose,cohort 3 (5600 mg/m2),0.2 h*mg/L/mg (2×) and 0.4 h*mg/L/mg
same,AUMCTmax,cohort 3 (5600 mg/m2),6061.8 h2*mg/L and 4859.5 h2*mg/L and 9884.9 h2*mg/L
same,AUMC∞,cohort 3 (5600 mg/m2),7579.9 h2*mg/L and 5932.4 h2*mg/L and 12427.3 h2*mg/L
same,CLO,cohort 3 (5600 mg/m2),4.4 L/h and 5.9 L/h and 2.8 L/h
same,Clast,cohort 3 (5600 mg/m2),50.5 µg/mL and 45.2 µg/mL and 94.2 µg/mL
same,Cmax,cohort 3 (5600 mg/m2),163.0 µg/mL and 120.7 µg/mL and 246.0 µg/mL
same,Cmax / Dose,cohort 3 (5600 mg/m2),0.0 mg/L/mg
same,Cmin,cohort 3 (5600 mg/m2),0 ng/mL
same,Elimination rate λz,cohort 3 (5600 mg/m2),0.4 /h and 0.5 /h (2×)
same,Half-life / T0.5,cohort 3 (5600 mg/m2),1.7 h and 1.4 h and 1.5 h
same,MRTTmax,cohort 3 (5600 mg/m2),1.3 h and 1.7 h and 1.6 h
same,MRT∞,cohort 3 (5600 mg/m2),2.0 h and 2.3 h (2×)
same,Tlast,cohort 3 (5600 mg/m2),10 h
same,Tmax,cohort 3 (5600 mg/m2),6.0 h
same,VSSO,cohort 3 (5600 mg/m2),8.8 L and 13.4 L and 6.3 L
same,VZO,cohort 3 (5600 mg/m2),10.7 L and 11.7 L and 6.2 L
same,AUCTmax,cohort 4 (7000 mg/m2),1942.5 µg·h/mL and 1258.2 µg·h/mL and 1667.1 µg·h/mL and 1676.0 µg·h/mL
same,AUC∞,cohort 4 (7000 mg/m2),3708.1 µg·h/mL and 1559.8 µg·h/mL and 2130.6 µg·h/mL and 1755.9 µg·h/mL
same,AUC∞ / Dose,cohort 4 (7000 mg/m2),0.5 h*mg/L/mg and 0.2 h*mg/L/mg and 0.3 h*mg/L/mg (2×)
same,AUMCTmax,cohort 4 (7000 mg/m2),11888.0 h2*mg/L and 7283.0 h2*mg/L and 9303.5 h2*mg/L and 8707.6 h2*mg/L
same,AUMC∞,cohort 4 (7000 mg/m2),44109.2 h2*mg/L and 11265.8 h2*mg/L and 15649.8 h2*mg/L and 9654.5 h2*mg/L
same,CLO,cohort 4 (7000 mg/m2),1.9 L/h and 4.5 L/h and 3.3 L/h and 4.0 L/h
same,Clast,cohort 4 (7000 mg/m2),214.0 µg/mL and 94.0 µg/mL and 125.5 µg/mL and 43.0 µg/mL
same,Cmax,cohort 4 (7000 mg/m2),283.0 µg/mL and 166.5 µg/mL and 224.5 µg/mL and 292.0 µg/mL
same,Cmax / Dose,cohort 4 (7000 mg/m2),0.0 mg/L/mg
same,Cmin,cohort 4 (7000 mg/m2),0 ng/mL
same,Elimination rate λz,cohort 4 (7000 mg/m2),0.1 /h and 0.3 /h (2×) and 0.5 /h
same,Half-life / T0.5,cohort 4 (7000 mg/m2),5.7 h and 2.2 h and 2.6 h and 1.3 h
same,MRTTmax,cohort 4 (7000 mg/m2),2.1 h and 1.8 h and 1.6 h and 1.2 h
same,MRT∞,cohort 4 (7000 mg/m2),7.9 h and 3.2 h and 3.3 h and 1.5 h
same,Tlast,cohort 4 (7000 mg/m2),10 h
same,Tmax,cohort 4 (7000 mg/m2),9.0 h and 6.0 h (2×) and 3.0 h
same,VSSO,cohort 4 (7000 mg/m2),14.9 L and 14.5 L and 11.0 L and 6.0 L
same,VZO,cohort 4 (7000 mg/m2),15.6 L and 14.4 L and 12.1 L and 7.4 L
same,AUCTmax,cohort 5 (8750 mg/m2),1729.5 µg·h/mL and 2397.4 µg·h/mL and 1424.5 µg·h/mL
same,AUC∞,cohort 5 (8750 mg/m2),1910.9 µg·h/mL and 2946.9 µg·h/mL and 1803.3 µg·h/mL
same,AUC∞ / Dose,cohort 5 (8750 mg/m2),0.2 h*mg/L/mg (2×) and 0.3 h*mg/L/mg
same,AUMCTmax,cohort 5 (8750 mg/m2),9560.8 h2*mg/L and 13507.9 h2*mg/L and 8120.6 h2*mg/L
same,AUMC∞,cohort 5 (8750 mg/m2),11777.2 h2*mg/L and 20800.6 h2*mg/L and 13329.9 h2*mg/L
same,CLO,cohort 5 (8750 mg/m2),4.6 L/h and 3.0 L/h and 4.9 L/h
same,Clast,cohort 5 (8750 mg/m2),81.5 µg/mL and 168.0 µg/mL and 101.0 µg/mL
same,Cmax,cohort 5 (8750 mg/m2),266.5 µg/mL and 306.0 µg/mL and 201.0 µg/mL
same,Cmax / Dose,cohort 5 (8750 mg/m2),0.0 mg/L/mg
same,Cmin,cohort 5 (8750 mg/m2),0 ng/mL
same,Elimination rate λz,cohort 5 (8750 mg/m2),0.4 /h and 0.3 /h (2×)
same,Half-life / T0.5,cohort 5 (8750 mg/m2),1.5 h and 2.3 h and 2.6 h
same,MRTTmax,cohort 5 (8750 mg/m2),1.5 h and 1.6 h and 1.7 h
same,MRT∞,cohort 5 (8750 mg/m2),2.2 h and 3.1 h and 3.4 h
same,Tlast,cohort 5 (8750 mg/m2),10 h
same,Tmax,cohort 5 (8750 mg/m2),6.0 h
same,VSSO,cohort 5 (8750 mg/m2),9.9 L and 9.1 L and 16.5 L
same,VZO,cohort 5 (8750 mg/m2),10.2 L and 9.7 L and 18.2 L
same,AUCTmax,cohort 6 (10500 mg/m2),1813.1 µg·h/mL and 2491.5 µg·h/mL and 3266.4 µg·h/mL and 2233.0 µg·h/mL
same,AUC∞,cohort 6 (10500 mg/m2),1921.1 µg·h/mL and 3551.0 µg·h/mL and 8601.3 µg·h/mL and 2661.5 µg·h/mL
same,AUC∞ / Dose,cohort 6 (10500 mg/m2),0.2 h*mg/L/mg and 0.3 h*mg/L/mg (2×) and 0.8 h*mg/L/mg
same,AUMCTmax,cohort 6 (10500 mg/m2),10264.8 h2*mg/L and 13653.6 h2*mg/L and 19354.9 h2*mg/L and 12411.4 h2*mg/L
same,AUMC∞,cohort 6 (10500 mg/m2),11500.0 h2*mg/L and 30316.3 h2*mg/L and 157035.6 h2*mg/L and 17933.0 h2*mg/L
same,CLO,cohort 6 (10500 mg/m2),5.5 L/h and 3.0 L/h and 1.2 L/h and 3.9 L/h
same,Clast,cohort 6 (10500 mg/m2),74.8 µg/mL and 185.0 µg/mL and 337.5 µg/mL and 148.5 µg/mL
same,Cmax,cohort 6 (10500 mg/m2),265.0 µg/mL and 339.5 µg/mL and 451.0 µg/mL and 299.5 µg/mL
same,Cmax / Dose,cohort 6 (10500 mg/m2),0.0 mg/L/mg
same,Cmin,cohort 6 (10500 mg/m2),0 ng/mL
same,Elimination rate λz,cohort 6 (10500 mg/m2),0.7 h⁻¹ and 0.2 h⁻¹ and 0.1 h⁻¹ and 0.3 h⁻¹
same,Half-life / T0.5,cohort 6 (10500 mg/m2),1.0 h and 4.0 h and 11.0 h and 2.0 h
same,MRTTmax,cohort 6 (10500 mg/m2),1.7 h and 1.5 h and 1.9 h and 1.6 h
same,MRT∞,cohort 6 (10500 mg/m2),2.0 h and 4.5 h and 14.3 h and 2.7 h
same,Tlast,cohort 6 (10500 mg/m2),10 h
same,Tmax,cohort 6 (10500 mg/m2),6.0 h (2×) and 3.0 h (2×)
same,VSSO,cohort 6 (10500 mg/m2),10.9 L and 13.4 L and 17.4 L and 10.8 L
same,VZO,cohort 6 (10500 mg/m2),7.9 L and 16.9 L and 19.3 L and 11.4 L
same,AUCTmax,cohort 7 (12390 mg/m2),2548.8 µg·h/mL and 2725.4 µg·h/mL and 2231.0 µg·h/mL
same,AUC∞,cohort 7 (12390 mg/m2),3050.7 µg·h/mL and 3012.0 µg·h/mL and 2566.2 µg·h/mL
same,AUC∞ / Dose,cohort 7 (12390 mg/m2),0.2 mg·h/L/mg
same,AUMCTmax,cohort 7 (12390 mg/m2),14937.6 h2*mg/L and 15888.2 h2*mg/L and 12461.8 h2*mg/L
same,AUMC∞,cohort 7 (12390 mg/m2),21377.1 h2*mg/L and 19295.7 h2*mg/L and 16684.7 h2*mg/L
same,CLO,cohort 7 (12390 mg/m2),4.1 L/h (2×) and 4.8 L/h
same,Clast,cohort 7 (12390 mg/m2),177.5 µg/mL and 152.0 µg/mL and 129.0 µg/mL
same,Cmax,cohort 7 (12390 mg/m2),367.5 µg/mL and 403.5 µg/mL and 311.0 µg/mL
same,Cmax / Dose,cohort 7 (12390 mg/m2),0.0 mg/L/mg
same,Cmin,cohort 7 (12390 mg/m2),0 ng/mL
same,Elimination rate λz,cohort 7 (12390 mg/m2),0.4 /h (2×) and 0.5 /h
same,Half-life / T0.5,cohort 7 (12390 mg/m2),2.0 h and 1.3 h and 1.8 h
same,MRTTmax,cohort 7 (12390 mg/m2),1.9 h and 1.8 h and 1.6 h
same,MRT∞,cohort 7 (12390 mg/m2),3.0 h and 2.4 h and 2.5 h
same,Tlast,cohort 7 (12390 mg/m2),10 h
same,Tmax,cohort 7 (12390 mg/m2),6.0 h
same,VSSO,cohort 7 (12390 mg/m2),12.2 L and 9.9 L and 12.1 L
same,VZO,cohort 7 (12390 mg/m2),11.5 L and 7.8 L and 12.5 L
same,AUCTmax,cohort 8 (14500 mg/m2),3458.0 µg·h/mL and 2612.8 µg·h/mL and 3213.9 µg·h/mL and 2461.1 µg·h/mL
same,AUC∞,cohort 8 (14500 mg/m2),3978.5 µg·h/mL and 2818.3 µg·h/mL and 3977.9 µg·h/mL and 2763.6 µg·h/mL
same,AUC∞ / Dose,cohort 8 (14500 mg/m2),0.3 h*mg/L/mg (2×) and 0.2 h*mg/L/mg (2×)
same,AUMCTmax,cohort 8 (14500 mg/m2),20144.2 h2*mg/L and 14245.4 h2*mg/L and 18540.8 h2*mg/L and 14081.6 h2*mg/L
same,AUMC∞,cohort 8 (14500 mg/m2),26577.3 h2*mg/L and 16679.9 h2*mg/L and 28758.2 h2*mg/L and 17835.7 h2*mg/L
same,CLO,cohort 8 (14500 mg/m2),3.6 L/h (2×) and 5.1 L/h and 5.2 L/h
same,Clast,cohort 8 (14500 mg/m2),220.5 µg/mL and 111.5 µg/mL and 226.5 µg/mL and 125.7 µg/mL
same,Cmax,cohort 8 (14500 mg/m2),496.0 µg/mL and 377.0 µg/mL and 464.5 µg/mL and 426.0 µg/mL
same,Cmax / Dose,cohort 8 (14500 mg/m2),0.0 mg/L/mg
same,Cmin,cohort 8 (14500 mg/m2),0 ng/mL
same,Elimination rate λz,cohort 8 (14500 mg/m2),0.4 /h (2×) and 0.5 /h and 0.3 /h
same,Half-life / T0.5,cohort 8 (14500 mg/m2),1.6 h and 1.3 h and 2.3 h and 1.7 h
same,MRTTmax,cohort 8 (14500 mg/m2),1.8 h (2×) and 1.5 h and 1.7 h
same,MRT∞,cohort 8 (14500 mg/m2),2.7 h and 1.9 h and 3.2 h and 2.5 h
same,Tlast,cohort 8 (14500 mg/m2),10 h
same,Tmax,cohort 8 (14500 mg/m2),6.0 h
same,VSSO,cohort 8 (14500 mg/m2),9.8 L and 9.9 L and 11.8 L and 12.9 L
same,VZO,cohort 8 (14500 mg/m2),8.6 L and 9.5 L and 12.3 L and 12.6 L
same,Half-life,range over the different cohorts,1.3 to 3.3 h
